Where two headings read alike, the source gives them in different places.
Target: recombinant CYP2D6 (Homo sapiens, UniProt P10635)
Test: Bufuralol 1'-hydroxylase assay (CYP2D6) IC50 determination
[1] = CYP2D6 IC50, recombinant CYP2D6 0.1 mg/ml, bufuralol 3.4 μM, 37° C., pH 7.4, Table I
[2] = IC50 Observed, test set of 8 compounds, in vitro values as measured in Example 1, Table II

Sequence of recombinant CYP2D6 (P10635 whole entry): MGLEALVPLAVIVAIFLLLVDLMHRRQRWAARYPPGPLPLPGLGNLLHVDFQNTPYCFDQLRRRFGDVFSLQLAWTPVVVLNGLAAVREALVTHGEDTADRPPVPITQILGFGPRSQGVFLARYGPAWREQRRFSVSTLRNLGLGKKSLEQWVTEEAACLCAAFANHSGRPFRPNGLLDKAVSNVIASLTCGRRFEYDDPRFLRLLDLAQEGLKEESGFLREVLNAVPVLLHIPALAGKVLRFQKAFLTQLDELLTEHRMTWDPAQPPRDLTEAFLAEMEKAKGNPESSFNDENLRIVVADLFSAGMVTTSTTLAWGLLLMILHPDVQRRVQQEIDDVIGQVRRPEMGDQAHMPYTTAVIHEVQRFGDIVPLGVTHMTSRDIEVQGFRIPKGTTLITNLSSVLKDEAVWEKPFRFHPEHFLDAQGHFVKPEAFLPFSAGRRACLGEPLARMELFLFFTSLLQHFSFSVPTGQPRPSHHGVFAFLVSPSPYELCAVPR
Description: Using a bufuralol-hydroxylation as a marker for CYP2D6 catalytic activity, the inhibitory effect of various NK-1 antagonists were assessed in vitro. The inhibitor compounds of Table I were assayed for CYP2D6 activity by the following procedure.
Two separate plates were prepared for the substrate and for dilutions of inhibitor. The contents of the two plates were combined in a 1:1 ratio to make a master plate of substrate and inhibitor solutions (S/I plate). The remaining assay ingredients, a combination of CYP2D6 (0.1 mg/ml, 0.12 pmol/ml, Panvera, Madison Wis.), NADPH (1.2 mM) and buffer (100 mM sodium phosphate, pH 7.4), are prepared on ice and transferred to a polyvinyl reaction plate (RXN plate). […] The RXN plate is pre-warmed to 37° C. using a MJ Research Model PTC-100 automated thermal controller, and the reaction is initiated by addition of an aliquot from the S/I plate. The reaction is allowed to proceed at 37° C. before being terminated using 70% perchloric acid (50 μl). HPLC analysis is preceded by filtration of (150μl) using a Millipore multiscreen-MAHA mixed cellulose esters, triton free, non-sterile plate (Millipore Co., Bedford, Mass.).
The reactions were then terminated as described above and Multiscreen plates were then used to filter the samples by slowly drawing them through the filter plate by a weak vacuum and collecting them in a polypropylene 96-well plate. The plate was mixed by drawing up and expelling well contents twice with the Soken pipettor. A 20 μl volume of each sample was injected for HPLC analysis every 2.5 minutes. When required, concentrations of the inhibitor were adjusted in a repeat experiment to cover concentration ranges above and below the reported IC50 value.
The mobile phase consisted of acetonitrile and water 20/80 v/v containing triethylamine (1 ml/liter) and phosphoric acid (600 l/liter) at a flow rate of 0.5 ml/min (analytical side) and 1.8 ml/min (wash side) using a column switching format. HPLC analysis was performed with two alternating HPLC columns (column A and column B) attached to a Valco E36 valve. Between 0 and 5.2 minutes of the run time, column A analyses metabolite peak of sample #1. […] During the wash cycle, the flow to column A is increased to 1.8 ml/min. […] A Phenomex primesphere C1 8-MC, 5 μm, 30×2 mm column (Phenomenex, Torrance, Calif.) was used. The retention time of the 1′-hydroxybufuralol (carbinol) metabolite was 1.0 minute. The peak area of the carbinol metabolite was determined in the absence of inhibitor and compared to that measured in the presence of inhibitor. The percent of control values versus inhibitor concentration were fitted to a Hill equation using non-linear curve fitting methods, namely, Deltagraph (DeltaPoint, Inc., Monterey, Calif.).

| IC50 [1] | IC50 [2] | Compound | IC50 |
| --- | --- | --- | --- |
| 7100 nM | 7100 nM | O=c1[nH]nc(CN2CCO[C@H](OCc3cc(C(F)(F)F)cc(C(F)(F)F)c3)[C@@H]2c2ccccc2)[nH]1 [Compound XXIV] | – |
| 18400 nM | – | C[C@@H](O[C@H]1OCCN(Cc2n[nH]c(=O)[nH]2)[C@H]1c1ccc(F)cc1)c1cc(C(F)(F)F)cc(C(F)(F)F)c1 [Compound XXI] | – |
| 21 nM | – | COc1ccccc1[C@H]1CC[C@]2(CCCN[C@@H]2c2ccccc2)NC1 [Compound XX] | – |
| 370 nM | – | COc1ccc(OC)c(CN[C@H]2CCCN[C@H]2c2ccccc2)c1 [Compound X] | – |
| 16 nM | 16 nM | COc1ccccc1CN[C@@H]1CCCC[C@@H]1C(c1ccccc1)c1ccccc1 [II] | – |
| 200 nM | 21 nM | COc1ccccc1CN[C@H]1CCCN[C@H]1c1ccccc1 [IV] | – |
| 130 nM | – | COc1ccccc1CN[C@@H]1[C@H]2CCC[C@H]2N[C@@H]1c1ccccc1 [IX] | – |
| – | – | Clc1ccccc1CN[C@@H]1C2CCN(CC2)[C@@H]1C(c1ccccc1)c1ccccc1 [I] | 59 nM |
| 22 nM | – | COc1ccccc1CN[C@@H]1C2CC3CCCC(C2)N3[C@@H]1C(c1ccccc1)c1ccccc1 [VIII] | – |
| 65 nM | – | Clc1ccccc1CN[C@@H]1C2CC3CCC(C2)N3[C@@H]1C(c1ccccc1)c1ccccc1 [VII] | – |
| 13 nM | 13 nM | c1ccc(CN[C@@H]2C3CC4CCC(C3)N4[C@@H]2C(c2ccccc2)c2ccccc2)cc1 [VI] | – |
| 41 nM | – | COc1ccccc1CN[C@@H]1C2CC3CCC(C2)N3[C@@H]1C(c1ccccc1)c1ccccc1 [V] | – |
| 13 nM | – | COc1ccccc1CC(=N)N1C[C@H]2C(=O)CCC(c3ccccc3)(c3ccccc3)[C@H]2C1 [XIII] | – |
| 6.7 nM | – | COc1ccccc1CN[C@@H]1C2C3CCCC2CN(C3)[C@@H]1C(c1ccccc1)c1ccccc1 [XII] | – |
| 38 nM | 38 nM | CC(C)Oc1ccccc1CN[C@H]1CCCN[C@H]1c1ccccc1 [XIV] | – |
| – | – | CC(C)Oc1ccc(OC(F)(F)F)cc1CN[C@H]1CCCN[C@H]1c1ccccc1 [XIX] | 47 nM |
| 16 nM | 16 nM | Clc1ccccc1CN[C@@H]1C2C3CCCC2CN(C3)[C@@H]1C(c1ccccc1)c1ccccc1 [XI] | – |
| 45 nM | – | CCOc1ccc(OC(F)(F)F)cc1CN[C@H]1CCCN[C@H]1c1ccccc1 [XVIII] | – |
| 40 nM | – | FC(F)(F)Oc1ccccc1CN[C@H]1CCCN[C@H]1c1ccccc1 [XVII] | – |
| 74 nM | – | FC(F)Oc1ccccc1CN[C@H]1CCCN[C@H]1c1ccccc1 [XVI] | – |
| 8800 nM | – | FC(F)(F)c1cc(CO[C@H]2OCCN(Cc3nnc[nH]3)[C@H]2c2ccccc2)cc(C(F)(F)F)c1 [XXIII] | – |
| 530 nM | – | COc1ccc(-n2nnnc2C(F)(F)F)cc1CN[C@H]1CCCN[C@H]1c1ccccc1 [XXVI] | – |
| 320 nM | 320 nM | COc1ccc(-n2cnnn2)cc1CN[C@H]1CCCN[C@H]1c1ccccc1 [XXV] | – |

| Compound | IC50 [1] | IC50 [2] | IC50 |
| --- | --- | --- | --- |
| COc1ccccc1CN[C@@H]1C2CCN(CC2)[C@@H]1C(c1ccccc1)c1ccccc1 [III] | 170 nM | – | – |

Source: patent US6564152B2, “Pharmacophore models for, methods of screening for, and identification of the cytochrome P-450 inhibitory potency of neurokinin-1 receptor antagonists” (Pfizer Inc, priority 2000, dated 2003)
